Data as given in paper PMC10910009, “Comparing ATPase activity of ATP-binding cassette subfamily C member 4, lamprey CFTR, and human CFTR using an antimony-phosphomolybdate assay” (Frontiers in Pharmacology, 2024).

B1: hABCC4 (Homo sapiens) (protein)
chain: MLPVYQEVKPNPLQDANLCSRVFFWWLNPLFKIGHKRRLEEDDMYSVLPEDRSQHLGEELQGFWDKEVLRAENDAQKPSLTRAIIKCYWKSYLVLGIFTLIEESAKVIQPIFLGKIINYFENYDPMDSVALNTAYAYATVLTFCTLILAILHHLYFYHVQCAGMRLRVAMCHMIYRKALRLSNMAMGKTTTGQIVNLLSNDVNKFDQVTVFLHFLWAGPLQAIAVTALLWMEIGISCLAGMAVLIILLPLQSCFGKLFSSLRSKTATFTDARIRTMNEVITGIRIIKMYAWEKSFSNLITNLRKKEISKILRSSCLRGMNLASFFSASKIIVFVTFTTYVLLGSVITASRVFVAVTLYGAVRLTVTLFFPSAIERVSEAIVSIRRIQTFLLLDEISQRNRQLPSDGKKMVHVQDFTAFWDKASETPTLQGLSFTVRPGELLAVVGPVGAGKSSLLSAVLGELAPSHGLVSVHGRIAYVSQQPWVFSGTLRSNILFGKKYEKERYEKVIKACALKKDLQLLEDGDLTVIGDRGTTLSGGQKARVNLARAVYQDADIYLLDDPLSAVDAEVSRHLFELCICQILHEKITILVTHQLQYLKAASQILILKDGKMVQKGTYTEFLKSGIDFGSLLKKDNEESEQPPVPGTPTLRNRTFSESSVWSQQSSRPSLKDGALESQDTENVPVTLSEENRSEGKVGFQAYKNYFRAGAHWIVFIFLILLNTAAQVAYVLQDWWLSYWANKQSMLNVTVNGGGNVTEKLDLNWYLGIYSGLTVATVLFGIARSLLVFYVLVNSSQTLHNKMFESILKAPVLFFDRNPIGRILNRFSKDIGHLDDLLPLTFLDFIQTLLQVVGVVSVAVAVIPWIAIPLVPLGIIFIFLRRYFLETSRDVKRLESTTRSPVFSHLSSSLQGLWTIRAYKAEERCQELFDAHQDLHSEAWFLFLTTSRWFAVRLDAICAMFVIIVAFGSLILAKTLDAGQVGLALSYALTLMGMFQWCVRQSAEVENMMISVERVIEYTDLEKEAPWEYQKRPPPAWPHEGVIIFDNVNFMYSPGGPLVLKHLTALIKSQEKVGIVGRTGAGKSSLISALFRLSEPEGKIWIDKILTTEIGLHDLRKKMSIIPQEPVLFTGTMRKNLDPFNEHTDEELWNALQEVQLKETIEDLPGKMDTELAESGSNFSVGQRQLVCLARAILRKNQILIIDEATANVDPRTDELIQKKIREKFAHCTVLTIAHRLNTIIDSDKIMVLDSGRLKEYDEPYVLLQNKESLFYKMVQQLGKAEAAALTETAKQVYFKRNYPHIGHTDHMVTNTSNGQPSTLTIFETAL
notes: human ABCC4 in pFastBac vector with 6xHis tag; baculovirus/Sf9 crude plasma membranes, not purified

Tests used:
Lp-CFTR = biological target: T1, Lp-CFTR (Petromyzon marinus, UniProt A0A5Q0TXR8); experiment: antimony-phosphomolybdate Pi release (ATPase); assay type: biochemical; conditions: Sf9 crude membranes, control membranes subtracted; 1 mM Na2ATP, 5 mM MgCl2, PKA, pH 7.4, 30 °C, 1 h
T1 construct: lamprey CFTR in pFastBac vector with 6xHis tag; baculovirus/Sf9 crude plasma membranes, not purified; PKA-phosphorylated
T1 sequence (A0A5Q0TXR8 1-1466): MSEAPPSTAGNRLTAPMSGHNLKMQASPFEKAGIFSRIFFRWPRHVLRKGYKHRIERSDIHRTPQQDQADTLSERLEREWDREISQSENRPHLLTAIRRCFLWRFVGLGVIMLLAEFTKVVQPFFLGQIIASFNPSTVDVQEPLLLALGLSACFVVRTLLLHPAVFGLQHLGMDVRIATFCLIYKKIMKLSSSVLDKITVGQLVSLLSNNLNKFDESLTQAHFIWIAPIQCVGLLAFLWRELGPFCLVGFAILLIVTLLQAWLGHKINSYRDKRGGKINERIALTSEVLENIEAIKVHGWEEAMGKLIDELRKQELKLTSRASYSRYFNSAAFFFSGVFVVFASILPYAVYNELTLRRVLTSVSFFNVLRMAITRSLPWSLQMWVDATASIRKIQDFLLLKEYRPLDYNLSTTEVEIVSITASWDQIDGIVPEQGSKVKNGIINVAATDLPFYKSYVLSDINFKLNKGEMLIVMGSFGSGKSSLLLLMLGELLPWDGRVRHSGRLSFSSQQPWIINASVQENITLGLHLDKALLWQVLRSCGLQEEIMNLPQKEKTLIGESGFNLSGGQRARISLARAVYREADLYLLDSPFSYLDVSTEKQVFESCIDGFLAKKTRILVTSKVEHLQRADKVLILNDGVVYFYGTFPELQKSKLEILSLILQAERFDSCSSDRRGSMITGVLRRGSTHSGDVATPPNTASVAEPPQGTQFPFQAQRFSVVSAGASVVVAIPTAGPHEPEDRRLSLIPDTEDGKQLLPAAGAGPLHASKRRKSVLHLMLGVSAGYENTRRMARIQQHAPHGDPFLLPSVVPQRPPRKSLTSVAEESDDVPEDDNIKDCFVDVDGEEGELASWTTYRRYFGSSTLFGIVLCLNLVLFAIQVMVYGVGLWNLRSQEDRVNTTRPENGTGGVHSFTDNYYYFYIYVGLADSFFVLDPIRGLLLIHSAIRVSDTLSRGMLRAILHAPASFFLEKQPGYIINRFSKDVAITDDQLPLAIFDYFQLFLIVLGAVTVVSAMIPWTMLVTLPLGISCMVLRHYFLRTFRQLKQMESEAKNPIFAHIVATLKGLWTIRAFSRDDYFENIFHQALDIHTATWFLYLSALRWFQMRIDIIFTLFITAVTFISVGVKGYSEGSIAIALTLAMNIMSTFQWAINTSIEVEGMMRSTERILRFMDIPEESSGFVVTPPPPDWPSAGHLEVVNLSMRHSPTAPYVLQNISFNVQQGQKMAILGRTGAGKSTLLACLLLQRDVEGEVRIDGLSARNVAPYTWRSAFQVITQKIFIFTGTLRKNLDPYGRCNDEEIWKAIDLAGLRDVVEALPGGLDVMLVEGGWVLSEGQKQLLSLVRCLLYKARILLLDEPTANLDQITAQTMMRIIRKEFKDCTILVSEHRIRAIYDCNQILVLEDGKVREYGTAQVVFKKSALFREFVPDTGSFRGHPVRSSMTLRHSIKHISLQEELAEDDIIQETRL

hCFTR = biological target: T2, hCFTR (Homo sapiens, UniProt P13569); conditions: Sf9 crude membranes, control membranes subtracted; 1 mM Na2ATP, 5 mM MgCl2, PKA, pH 7.4, 30 °C, 1 h
T2 construct: gene CFTR

[1] = substrate: Nc1ncnc2c1ncn2[C@@H]1O[C@H](COP(=O)(O)OP(=O)(O)OP(=O)(O)O)[C@@H](O)[C@H]1O; experiment: antimony-phosphomolybdate Pi release (ATPase), Michaelis-Menten fit; assay type: biochemical, Homo sapiens; conditions: printed as Kd but from Michaelis-Menten fit of ATPase activity, Sf9 crude membranes, control membranes subtracted, 5 mM MgCl2, pH 7.4, 37 °C, 20 min, no PKA, no transport substrate

T2 sequence (P13569 whole entry): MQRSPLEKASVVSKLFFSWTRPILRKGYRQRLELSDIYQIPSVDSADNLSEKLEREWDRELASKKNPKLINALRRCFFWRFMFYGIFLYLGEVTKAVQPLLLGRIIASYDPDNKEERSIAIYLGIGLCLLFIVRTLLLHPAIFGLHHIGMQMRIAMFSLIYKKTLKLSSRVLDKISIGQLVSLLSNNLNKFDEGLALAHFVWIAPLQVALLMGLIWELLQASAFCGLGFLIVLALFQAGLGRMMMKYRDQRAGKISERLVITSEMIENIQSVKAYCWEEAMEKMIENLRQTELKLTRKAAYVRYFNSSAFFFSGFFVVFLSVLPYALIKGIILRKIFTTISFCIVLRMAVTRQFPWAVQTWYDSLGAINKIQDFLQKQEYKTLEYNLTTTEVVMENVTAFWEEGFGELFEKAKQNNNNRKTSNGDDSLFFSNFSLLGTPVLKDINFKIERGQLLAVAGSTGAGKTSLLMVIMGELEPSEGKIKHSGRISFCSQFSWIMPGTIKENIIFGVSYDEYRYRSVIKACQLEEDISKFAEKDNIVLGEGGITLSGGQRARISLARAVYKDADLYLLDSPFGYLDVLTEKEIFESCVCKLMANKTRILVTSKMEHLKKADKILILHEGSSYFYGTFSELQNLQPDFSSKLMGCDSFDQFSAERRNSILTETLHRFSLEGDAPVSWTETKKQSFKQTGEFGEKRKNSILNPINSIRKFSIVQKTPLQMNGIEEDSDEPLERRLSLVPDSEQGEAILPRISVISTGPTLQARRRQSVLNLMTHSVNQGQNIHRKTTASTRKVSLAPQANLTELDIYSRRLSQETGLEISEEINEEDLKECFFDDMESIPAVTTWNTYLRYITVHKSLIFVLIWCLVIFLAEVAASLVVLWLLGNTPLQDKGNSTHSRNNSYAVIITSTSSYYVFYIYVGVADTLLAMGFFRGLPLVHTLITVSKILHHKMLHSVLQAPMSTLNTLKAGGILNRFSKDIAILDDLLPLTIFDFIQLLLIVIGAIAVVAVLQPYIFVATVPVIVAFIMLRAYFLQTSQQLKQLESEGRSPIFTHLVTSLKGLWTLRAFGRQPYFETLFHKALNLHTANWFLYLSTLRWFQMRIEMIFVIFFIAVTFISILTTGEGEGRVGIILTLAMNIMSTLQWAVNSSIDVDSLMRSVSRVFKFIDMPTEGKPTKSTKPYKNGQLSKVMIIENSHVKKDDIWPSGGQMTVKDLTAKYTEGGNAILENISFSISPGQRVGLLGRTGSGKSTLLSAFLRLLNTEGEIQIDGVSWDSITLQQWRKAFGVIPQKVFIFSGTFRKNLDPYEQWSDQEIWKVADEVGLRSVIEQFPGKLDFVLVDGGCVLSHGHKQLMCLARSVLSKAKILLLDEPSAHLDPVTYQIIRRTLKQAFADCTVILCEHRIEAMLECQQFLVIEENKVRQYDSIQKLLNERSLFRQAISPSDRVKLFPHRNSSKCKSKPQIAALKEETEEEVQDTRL

Molecule	antimony-phosphomolybdate Pi release (ATPase) (Lp-CFTR)	antimony-phosphomolybdate Pi release (ATPase) (hCFTR)	Km [1]
Nc1ncnc2c1ncn2[C@@H]1O[C@H](COP(=O)(O)OP(=O)(O)OP(=O)(O)O)[C@@H](O)[C@H]1O [ATP]	Lp-CFTR exhibited higher ATPase activity in high PKA compared to low PKA conditions	hCFTR exhibited higher ATPase activity in high PKA compared to low PKA conditions	
B1			550 ± 280 µM
